System: patient-derived pancreatic ductal adenocarcinoma (PDAC) organoids
Experiment: Drug testing of patient-derived PDAC organoids treated with gemcitabine in the microwell platform
Format: cell-based, human
Conditions: PDAC organoids derived from the same parental cells, imaging (FIG. 6)
Text: FIG. 6: Representative drug evaluation of patient-derived pancreatic ductal adenocarcinoma organoids treated with gemcitabine. Upper panel, organoids sensitive to gemcitabine; lower panel, organoids resistance to gemcitabine. Organoids are a desirable choice for drug screening studies because they retain 3D cellular architecture and therefore recapitulate physiological conditions to a higher degree than traditional cell lines. […] Organoids sensitive to gemcitabine (FIG. 6, top panel) were growth-stunted and/or dissociated compared to resistant organoids (FIG. 6, bottom panel). Whole organoids that display resistance to a drug, can be retrieved and further evaluated, e.g., for genomic changes and/or changes in RNA expression profiles, to evaluate mechanisms of drug resistance, for example, innate versus acquired resistance.

Nc1ccn([C@@H]2O[C@H](CO)[C@@H](O)C2(F)F)c(=O)n1 [gemcitabine]
observed drug response of single organoids (growth, dissociation): heterogeneity in observed drug response
